From patent publication US7495002B2, “3-methyl-7-butinyl-xanthines, the preparation thereof and their use as pharmaceutical compositions” (Boehringer Ingelheim International GmbH, priority 2004, dated 2009)

Legend:
DPP-IV = target: T1, DPP-IV (Homo sapiens, UniProt P27487); assay: DPP-IV assay with extract of Caco-2 cells as DPP IV source, AFC substrate, fluorescence; type: biochemical; settings: extract of human colon carcinoma cell line Caco-2; substrate 100 μM; 60 minutes at ambient temperature; read-out: DPP IV inhibition IC50
T1 construct: an extract of the human colon carcinoma cell line Caco-2 is used as the DPP IV source; endogenous in cells; host or cells: Caco-2 (human colon carcinoma), differentiated to induce DPP-IV expression; Nonidet-P40 solubilised extract
T1 sequence (P27487 whole entry): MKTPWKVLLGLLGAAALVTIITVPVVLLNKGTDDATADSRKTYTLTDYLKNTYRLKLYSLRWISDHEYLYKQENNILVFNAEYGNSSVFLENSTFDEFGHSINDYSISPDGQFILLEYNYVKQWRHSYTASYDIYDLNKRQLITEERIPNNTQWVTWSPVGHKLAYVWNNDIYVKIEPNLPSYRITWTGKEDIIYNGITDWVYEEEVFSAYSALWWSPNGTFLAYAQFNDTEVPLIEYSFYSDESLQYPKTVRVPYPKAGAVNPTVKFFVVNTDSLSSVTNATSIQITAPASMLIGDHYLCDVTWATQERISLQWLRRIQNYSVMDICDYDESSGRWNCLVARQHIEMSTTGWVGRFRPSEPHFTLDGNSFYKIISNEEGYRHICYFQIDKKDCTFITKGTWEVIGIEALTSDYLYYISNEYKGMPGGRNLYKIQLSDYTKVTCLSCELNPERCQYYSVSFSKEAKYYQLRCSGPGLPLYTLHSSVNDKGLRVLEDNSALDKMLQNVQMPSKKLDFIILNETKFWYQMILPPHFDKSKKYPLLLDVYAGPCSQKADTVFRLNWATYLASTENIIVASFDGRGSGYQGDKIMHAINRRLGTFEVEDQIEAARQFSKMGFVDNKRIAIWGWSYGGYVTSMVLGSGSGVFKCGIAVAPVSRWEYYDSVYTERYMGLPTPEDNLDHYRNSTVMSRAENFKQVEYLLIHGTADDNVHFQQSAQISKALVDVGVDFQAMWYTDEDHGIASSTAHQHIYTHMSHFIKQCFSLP
Description: The differentiation of the cells in order to induce the DPP-IV expression was carried out in accordance with the description by Reiher et al. in an article entitled “Increased expression of intestinal cell line Caco-2”, which appeared in Proc. Natl. Acad. Sci. Vol. 90, pp. 5757-5761 (1993). The cell extract was obtained from cells solubilised in a buffer (10 mM Tris HCl, 0.15 M NaCl, 0.04 t.i.u. aprotinin, 0.5% Nonidet-P40, pH 8.0) by centrifugation at 35,000 g for 30 minutes at 4° C. (to remove cell debris).
The DPP-IV assay was carried out as follows:
50 μl of substrate solution (AFC; AFC is amido-4-trifluoromethylcoumarin), final concentration 100 μM, were placed in black microtitre plates. 20 μl of assay buffer (final concentrations 50 mM Tris HCl pH 7.8, 50 mM NaCl, 1% DMSO) was pipetted in. The reaction was started by the addition of 30 μl of solubilised Caco-2 protein (final concentration 0.14 μg of protein per well). The test substances under investigation were typically added prediluted to 20 μl, while the volume of assay buffer was then reduced accordingly. The reaction was carried out at ambient temperature, the incubation period was 60 minutes. Then the fluorescence was measured in a Victor 1420 Multilabel Counter, with the excitation wavelength at 405 nm and the emission wavelength at 535 nm. Dummy values (corresponding to 0% activity) were obtained in mixtures with no Caco-2 protein (volume replaced by assay buffer), control values (corresponding to 100% activity) were obtained in mixtures without any added substance. The potency of the test substances in question, expressed as IC50 values, were calculated from dosage/activity curves consisting of 11 measured points in each case.

rats = assay: Tolerability in rats after oral administration; type: in vivo; settings: oral administration of 10 mg/kg

| Structure (SMILES) | IC50 (DPP-IV) [nM] | toxic side effects (rats) |
| --- | --- | --- |
| CC#CCn1c(N(C)C[C@H](C)N)nc2c1c(=O)n(Cc1ncccc1C#N)c(=O)n2C [2(11), 1-[(3-cyano-pyridin-2-yl)methyl]-3-methyl-7-(2-butyn-1-yl)-8-[(S)-(2-amino-propyl)-methylamino]-xanthine] | 3 | – |
| CC#CCn1c(N(C)C[C@H](C)N)nc2c1c(=O)n(Cc1ccc3nccnc3c1)c(=O)n2C [2(10), 1-[(quinoxalin-6-yl)methyl]-3-methyl-7-(2-butyn-1-yl)-8-[(S)-(2-amino-propyl)-methylamino]-xanthine] | 3 | – |
| CC#CCn1c(N(C)C[C@H](C)N)nc2c1c(=O)n(Cc1nc(C)c3ccccc3n1)c(=O)n2C [Example 2(4), 1-[(4-methyl-quinazolin-2-yl)methyl]-3-methyl-7-(2-butyn-1-yl)-8-[(S)-(2-amino-propyl)-methylamino]-xanthine] | 2 | no toxic side effects could be detected |

Further lines, with some results ahead:

| IC50 (DPP-IV) [nM] | Structure (SMILES) | toxic side effects (rats) |
| --- | --- | --- |
| 2 | CC#CCn1c(N(C)CCN)nc2c1c(=O)n(Cc1nc(C)c3ccccc3n1)c(=O)n2C [1(1), 1-[(4-methyl-quinazolin-2-yl)methyl]-3-methyl-7-(2-butyn-1-yl)-8-[(2-amino-ethyl)-methylamino]-xanthine] | – |
| 3 | CC#CCn1c(N(C)CC(C)(C)N)nc2c1c(=O)n(Cc1nc(C)c3ccccc3n1)c(=O)n2C [2(1), 1-[(4-methyl-quinazolin-2-yl)methyl]-3-methyl-7-(2-butyn-1-yl)-8-[(2-amino-2-methyl-propyl)-methylamino]-xanthine] | – |
| 2 | CC#CCn1c(N(C)C[C@H](C)N)nc2c1c(=O)n(Cc1ncc3ccccc3c1C#N)c(=O)n2C [2(12), 1-[(4-cyano-isoquinolin-3-yl)methyl]-3-methyl-7-(2-butyn-1-yl)-8-[(S)-(2-amino-propyl)-methylamino]-xanthine] | – |
